Reference: article PMC5019189 (European journal of pharmacology, 2015)
Read-outs that look alike come from different tables or passages of the source.

Assays:
[1] = tested on: TNF-α-induced VCAM-1 mRNA expression; details: human aortic endothelial cells, Northern blot analysis; ref Dagia et al., 2004; cited from earlier work
[2] = tested on: abnormal MHC gene expression in thyroid epithelial cells; details: ref Giuliani et al., 2010; cited from earlier work
[3] = tested on: TNF-α-induced VCAM-1 protein expression; assay: ELISA of 24 h TNF-α-induced VCAM-1 protein expression on HUVEC; format: cell-based, human; details: for inhibition of the VCAM-1 protein expression elicited by TNF-α: 50 μM compound
HUVEC = assay: Cell viability; format: cell-based, human; details: 24 h, linear regression, mean of three experiments

Structure (SMILES)	effect on 24 h TNF-α-induced VCAM-1 mRNA expression [1]	suppression of abnormal MHC gene expression compared to MMI [2]	inhibition of the VCAM-1 protein expression elicited by TNF-α ([3]; 24 h TNF-α)	IC50 ([3]; read-out: IC50, concentration of compound needed to inhibit 50% of the VCAM-1 expression, 10 ng/ml TNF-α, 24 h, ELISA, linear regression, average of at least three experiments)	TC50, concentration of compound needed to reduce the MTS signal by 50% of the control value (HUVEC)	inhibition of VCAM-1 protein expression ([3]; 70 μM compound, 24 h TNF-α)	IC50 ([3]; Homo sapiens, 24 h, read-out: IC50, concentration of compound needed to inhibit 50% of the VCAM-1 expression)
Cn1c(-c2ccccc2)c[nH]c1=S [1a, 4-phenyl-3-methyl-1, 3 imidazole-2-thione]	inhibits	70–100 fold	over 40%	66 µM			
Cn1cc[nH]c1=S [MMI, 3-methyl-1, 3 imidazole-2 thione]			no inhibitory effect		2450 µM	little, if any, inhibition	1140 µM
